Consider five molecules from US5668150A, “Non-symmetrical bis-heteroarylmethoxyphenylalkyl carboxylates as inhibitors of leukotriene biosynthesis” (Abbott Laboratories, priority 1996, dated 1997).

pIC50: −log10 of the molar value. Counter-ions that a name gives are not always drawn. Like-named read-outs stand apart in the source and are kept apart here.

In this test the test system is 5-Lipoxygenase. Briefly: Inhibition of leukotriene biosynthesis in vitro: calcium ionophore-induced LTB4 formation in human polymorphonuclear leukocytes (PMNL). It counts as cell-based. Conditions: calcium ionophore 8.3 μM, 15 min preincubation, 37 °C; for % I, In Vitro Inhibitory Potencies Against 5-Lipoxygenase from Stimulated LTB4 Formation in Human Polymorphonuclear Leukocytes: @ 0.10 μM; for pIC50: read-out: IC50, In Vitro Inhibitory Potencies Against 5-Lipoxygenase from Stimulated LTB4 Formation in Human Polymorphonuclear Leukocytes. On the procedure: Inhibition of leukotriene biosynthesis was evaluated in vitro using an assay involving calcium ionophore-induced LTB4 expressed in human (PMNL). Human PMNL isolated from heparinized (20 USP units/mL) venous blood (25 mL) obtained from healthy volunteers was layered over an equal volume of Ficoll-Hypaque Mono-Poly Resolving Medium (ICN Flow, Costa Mesa, Calif.) and centrifuged at 400×g for 40 min at 20° C. The PMNL was collected, erythrocytes lysed and washed 2× and suspended at 1.0×10^7 cells/mL in Earle's balanced salt solution with 17 mM Earle's HEPES. Aliquots of the cell suspension were preincubated with test compounds dissolved in DMSO (final concentration <2%) for 15 min. and stimulated with calcium ionophore (final concentration 8.3 μM) for 10 min. at 37 ° C. Incubations were stopped with the addition of two volumes of ice-cold methanol followed by centrifuging the cell suspensions at 4° C. for 10 rain at 450×g. The mount of LTB4 in the methanol extract was analyzed by enzyme-linked immunoassay or by HPLC analysis.

In general, pIC50 refers to −log10 of the IC50, conventionally taken in molar units.

For `CC(CCC(=O)O)(c1ccc(OCc2ccc3ccccc3n2)cc1)c1ccc(OCc2nc3ccccc3s2)cc1` (centres unmarked) [Example 1, 4-(4-(2-benzothiazolylmethoxy)phenyl)-4-(4-(2-quinolylmethoxy)phenyl)pentanoic acid], the “% I, In Vitro Inhibitory Potencies Against 5-Lipoxygenase from Stimulated LTB4 Formation in Human Polymorphonuclear Leukocytes” value is 95%.

For the molecule `CC(CCC(=O)O)(c1ccc(OCc2ccc3ccccc3n2)cc1)c1ccc(OCc2nc3ccccc3s2)cc1` (centres unmarked) [Example 2, 4-(4-(2-benzothiazolylmethoxy)phenyl)-4-(4-(2-quinolylmethoxy)phenyl)pentanoic acid sodium salt], the pIC50 is 7.28.

Regarding `CC(CCC(=O)O)(c1ccc(OCc2ccc3ccccc3c2)cc1)c1ccc(OCc2ccc3ccccc3n2)cc1` (centres unmarked) [Example 3, 4-(4-(2-naphthylmethoxy)phenyl)-4-(4-(2-quinolylmethoxy)phenyl)pentanoic acid], the “% I, In Vitro Inhibitory Potencies Against 5-Lipoxygenase from Stimulated LTB4 Formation in Human Polymorphonuclear Leukocytes” value is 93%.

For the molecule `Cn1c(COc2ccc(C(C)(CCC(=O)O)c3ccc(OCc4ccc5ccccc5n4)cc3)cc2)nc2ccccc21` (centres unmarked) [Example 5, 4-(4-(2-(1-methyl)benzimidazolylmethoxy)phenyl)-4-(4-(2-quinolylmethoxy)phenyl)pentanoic acid sodium salt], for the setting “sodium salt”, the pIC50 is 7.10.

In the case of `Cn1c(COc2ccc(C(C)(CCC(=O)O)c3ccc(OCc4ccc5ccccc5n4)cc3)cc2)nc2ccccc21` (centres unmarked) [Example 6, 4-(4-(2-(1-methyl)benzimidazolylmethoxy)phenyl)-4-(4-(2-quinolylmethoxy)phenyl)pentanoic acid sodium salt], the pIC50 (sodium salt) is 7.05.
